Assay results as given in patent US20240148821A1, “PHARMACEUTICAL USE OF CYCLIC PEPTIDE COMPOUND” (CHUGAI SEIYAKU KABUSHIKI KAISHA, priority 2021, published 2024).
Numbered stars: 1 amine (or outer) side, 2 acyl side, 3 side chain; on linkers, the order of the positions; unused ones are H or OH. Bridge positions count the residues as written; N and C are the ends. Square brackets hold non-standard residues; d marks the D form. Peptide text beside a SMILES is read from it. * marks the point of attachment. hPhe(3,5-F2-4-CF3) = N[C@@H](CCc1cc(F)c(C(F)(F)F)c(F)c1)C(=O)O; hPhe(3-Cl-4-CF3) = N[C@@H](CCc1ccc(C(F)(F)F)c(Cl)c1)C(=O)O; hPhe(3-F,4-CF3) = N[C@@H](CCc1ccc(C(F)(F)F)c(F)c1)C(=O)O; NMePhe(4-CF3) = CN[C@@H](Cc1ccc(C(F)(F)F)cc1)C(=O)O; NMePhe(4-CN) = CN[C@@H](Cc1ccc(C#N)cc1)C(=O)O; NMePhe(4-Cl) = CN[C@@H](Cc1ccc(Cl)cc1)C(=O)O; NMePhe(4-Me) = CN[C@@H](Cc1ccc(C)cc1)C(=O)O; NMedβ3hAla = C[C@H](CC(=O)[*:2])N(C)[*:1]; NMeGly(cPent) = CN[C@H](C(=O)O)C1CCCC1; Phe(3-I) = N[C@@H](Cc1cccc(I)c1)C(=O)O; Pro(4,4-F2) = O=C(O)[C@@H]1CC(F)(F)CN1; NMeCha = CN[C@@H](CC1CCCCC1)C(=O)O; NMeGly(cPr) = CN[C@H](C(=O)O)C1CC1; Gly(N-(CH2)2OEt) = CCOCCNCC(=O)O; NMeChg = CN[C@H](C(=O)O)C1CCCCC1; NMeF = CN[C@@H](Cc1ccccc1)C(=O)O; NMeI = CC[C@H](C)[C@H](NC)C(=O)O; NMeβAla = CN(CCC(=O)[*:2])[*:1]; NMeD = CN[C@@H](CC(=O)O)C(=O)O; NMeL = CN[C@@H](CC(C)C)C(=O)O; NMeV = CN[C@H](C(=O)O)C(C)C; Trifluoroethyl = FC(F)(F)C*; d(β3hA) = C[C@@H](N)CC(=O)O; NMeA = CN[C@@H](C)C(=O)O; Nle = CCCC[C@H](N)C(=O)O; Piperidide = C1CCN(*)CC1; Ac5c = NC1(C(=O)O)CCCC1; Aze = O=C(O)[C@@H]1CCN1; Sar = CNCC(=O)O

test system: Human pancreatic cancer cell line AsPC-1 (G12D mutation Kras); assay: AsPC-1 cell growth inhibition (AsPC-1 CGI); assay type: cell-based; settings: read-out: AsPC-1 cell growth inhibition, 50% growth inhibitory concentration (IC50 value); 96 hours, CellTiter-Glo, values classified in ranges
Procedure: Test compounds were serially dilated with dimethyl sulfoxide, and 200 nL was then dispensed to a U-bottom 96-well plate using Labcyte Echo. […] The cell suspension was dispensed to a. plate containing a test compound at 100 μL per well and incubated at 37° C. in a 5% carbon dioxide gas incubator. 96 hours later, 80 μL of CellTiter-Glo (Promega) was added to each well and fluorescence was measured.

`CC[C@H](C)[C@@H]1NC(=O)[C@H](C2CCCC2)N(C)C(=O)C[C@@H](C)NC(=O)[C@H](C(C)C)N(C)C(=O)C2(CCCC2)NC(=O)[C@@H]2CCCN2C(=O)[C@H](CCc2ccc(C(F)(F)F)c(Cl)c2)NC(=O)CN(C)C(=O)[C@H](CC2CCCCC2)N(C)C(=O)CN(C)C(=O)CN(C)C1=O` [Compound 857] (cyclo([Ac5c][NMeV][d(β3hA)][NMeGly(cPent)]I[Sar][Sar][NMeCha][Sar][hPhe(3-Cl-4-CF3)]P)) and `CC[C@H](C)[C@@H]1NC(=O)[C@H](CC(C)C)N(C)C(=O)C[C@@H](C)N(C)C(=O)[C@H](C2CC2)N(C)C(=O)C2(CCCC2)NC(=O)[C@@H]2CCCN2C(=O)[C@H](CCc2ccc(C(F)(F)F)c(Cl)c2)NC(=O)CN(C)C(=O)[C@H](CC2CCCCC2)N(C)C(=O)CN(C)C(=O)CN(C)C1=O` [Compound 874] (cyclo([Ac5c][NMeGly(cPr)][NMedβ3hAla][NMeL]I[Sar][Sar][NMeCha][Sar][hPhe(3-Cl-4-CF3)]P)) cannot be ordered by IC50: over 500 nM for the first, over 500 nM for the second.

`CC[C@H](C)[C@@H]1NC(=O)[C@H](C)N(C)C(=O)C[C@@H](C(=O)N2CCCCC2)NC(=O)[C@H](CC(C)C)N(C)C(=O)[C@H](Cc2ccccc2)N(C)C(=O)[C@H](CC(C)C)NC(=O)[C@H](CCc2ccc(C(F)(F)F)c(Cl)c2)NC(=O)CN(C)C(=O)[C@H](Cc2ccc(Cl)cc2)N(C)C(=O)CN(C)C(=O)CN(C)C1=O` [Compound 861] ([NMeA]I[Sar][Sar][NMePhe(4-Cl)][Sar][hPhe(3-Cl-4-CF3)]L[NMeF][NMeL]D-Piperidide; lactam N-11) and `CCCC[C@@H]1NC(=O)[C@H](Cc2cccc(I)c2)NC(=O)CN(C)C(=O)[C@H](Cc2ccc(Cl)cc2)N(C)C(=O)CN(C)C(=O)CN(C)C(=O)[C@H]([C@@H](C)CC)NC(=O)[C@H](CC(C)C)N(C)C(=O)C[C@@H](C(=O)N2CCCCC2)N(C)C(=O)[C@H](CC(C)C)NC(=O)[C@H](Cc2ccc(C)cc2)N(C)C1=O` [Compound 876] ([NMeL]I[Sar][Sar][NMePhe(4-Cl)][Sar][Phe(3-I)][Nle][NMePhe(4-Me)]L[NMeD]-Piperidide; lactam N-11) cannot be ordered by IC50: over 500 nM for the first, over 500 nM for the second.

First: CC[C@H](C)[C@@H]1NC(=O)[C@H](CC(C)C)N(C)C(=O)C[C@@H](C)N(C)C(=O)[C@H]([C@@H](C)CC)N(C)C(=O)C2(CCCC2)NC(=O)[C@@H]2CC(F)(F)CN2C(=O)[C@H](CCc2cc(F)c(C(F)(F)F)c(F)c2)NC(=O)CN(C)C(=O)[C@H](Cc2ccc(C(F)(F)F)cc2)N(C)C(=O)[C@@H]2CCN2C(=O)[C@H](C)N(C)C1=O [Compound 863] (cyclo([Ac5c][NMeI][NMedβ3hAla][NMeL]I[NMeA][Aze][NMePhe(4-CF3)][Sar][hPhe(3,5-F2-4-CF3)][Pro(4,4-F2)]))
Second: CC[C@H](C)[C@@H]1NC(=O)[C@H](CC(C)C)N(C)C(=O)C[C@@H](C(=O)N2CCCCC2)N(C)C(=O)[C@H](C(C)C)N(C)C(=O)C2(CCCC2)NC(=O)[C@@H]2CCCN2C(=O)[C@H](CCc2ccc(C(F)(F)F)c(Cl)c2)NC(=O)CN(C)C(=O)[C@H](Cc2ccc(C#N)cc2)N(C)C(=O)CN(C)C(=O)CN(C)C1=O [Compound 867] ([NMeL]I[Sar][Sar][NMePhe(4-CN)][Sar][hPhe(3-Cl-4-CF3)]P[Ac5c][NMeV][NMeD]-Piperidide; lactam N-11)
The IC50 of the first is lower: at most 20 nM for the first, over 500 nM for the second.

`CCOCCN1CC(=O)N(C)[C@@H](CC2CCCCC2)C(=O)N(C)CC(=O)N[C@@H](CCc2ccc(C(F)(F)F)c(Cl)c2)C(=O)N2CCC[C@H]2C(=O)NC2(CCCC2)C(=O)N(C)[C@@H](C(C)C)C(=O)N[C@H](C)CC(=O)N(C)[C@@H](CC(C)C)C(=O)N[C@@H]([C@@H](C)CC)C(=O)N(C)CC1=O` [Compound 864] (cyclo([Ac5c][NMeV][d(β3hA)][NMeL]I[Sar][Gly(N-(CH2)2OEt)][NMeCha][Sar][hPhe(3-Cl-4-CF3)]P)) and `CC[C@H](C)[C@@H]1NC(=O)[C@H](CC(C)C)N(C)C(=O)CCN(C)C(=O)[C@H](C(C)C)N(C)C(=O)C2(CCCC2)NC(=O)[C@@H]2CCCN2C(=O)[C@H](CCc2ccc(C(F)(F)F)c(F)c2)NC(=O)CN(C)C(=O)[C@H](CC2CCCCC2)N(C)C(=O)CN(C)C(=O)CN(C)C1=O` [Compound 879] (cyclo([Ac5c][NMeV][NMeβAla][NMeL]I[Sar][Sar][NMeCha][Sar][hPhe(3-F,4-CF3)]P)) cannot be ordered by IC50: over 500 nM for the first, over 500 nM for the second.

For `CC(C)C[C@H]1C(=O)N[C@@H](COCC(F)(F)F)C(=O)N(C)CC(=O)N(C)CC(=O)N(C)[C@@H](CC2CCCCC2)C(=O)N(C)CC(=O)N[C@@H](CCc2ccc(C(F)(F)F)c(Cl)c2)C(=O)N2CCC[C@H]2C(=O)NC2(CCCC2)C(=O)N(C)[C@@H](C2CCCCC2)C(=O)N(C)[C@H](C(=O)N2CCCCC2)CC(=O)N1C` [Compound 894] ([NMeL]S(Trifluoroethyl)[Sar][Sar][NMeCha][Sar][hPhe(3-Cl-4-CF3)]P[Ac5c][NMeChg][NMeD]-Piperidide; lactam N-11), the IC50 was over 500 nM.
